Reference: patent US11912679B2, “Aryl alkynamide derivatives” (Astellas Pharma, Inc., priority 2022, dated 2024)
Structures can show the parent of a compound that is named as a salt.

Test system: IRF pathway of THP-1
Test: Test on the activity of IRF pathway of THP-1 (THP1-Dual reporter cells stimulated with 2'3'-cGAMP)
Format: cell-based
Settings: Homo sapiens, PMA-treated, 2'3'-cGAMP 5 ug/mL, QUANTI-Luc readout, read-out: IC50 of inhibition of the activity of IRF pathway
Procedure: 0.3 uM of PMA (phorbol myristate acetate, SIGMA, P1585) was added to THP1-Dual™ cells (NF-κB-SEAP IRF-Luc Reporter Monocytes, Invivogen, thpd-nfis), and the cells were cultured at 37° C. for 1 day in RPMI1640 with 10% Fetal Bovine Serum (FBS). A compound with a known concentration was added, and the cells were incubated at room temperature for 1 hour. Mammalian (non-canonical) CDN, cyclic [G(2′,5′)pA(3′,5′)p] (2′3′-cGAMP, Invivogen, tlrl-nacga23) was added to a final concentration of 5 ug/mL, and the cells were cultured at 37° C. On the following day, QUANTI-Luc™ (Secreted luciferase detection medium, Invivogen, rep-qlc) was added to the culture solution and the activity of IRF pathway was measured using a microplate reader. The inhibition ratio at each concentration was determined, where the activity of IRF pathway with no addition of the test compound or 2′3′-cGAMP was defined as 100% inhibition and the activity of IRF pathway with no addition of the test compound and with addition of 2′3′-cGAMP was defined as 0% inhibition. The IC50 value was calculated by sigmoid […] model non-linear regression analysis.

Structure (SMILES)	IC50 [nM]
O=C(C#Cc1ccc(-c2ccc(OC(F)F)cc2)c(C(F)(F)F)c1)N[C@H]1COC[C@H]1O [Example 80]	539
O=C(C#Cc1cnn(-c2ccc(F)cc2)c1C(F)(F)F)N1C[C@@H](O)[C@@H](O)C1 [Example 86]	8040
O=C(C#Cc1ccc(-c2ccccn2)cc1)N(CCO)c1ccccc1 [Example 87, N-(2-hydroxyethyl)-N-phenyl-3-[4-(pyridin-2-yl)phenyl]prop-2-ynamide]	1610
CN1CCN(C(=O)C#Cc2ccc(-c3ccncc3)cc2)CC1 [Example 88, 1-(4-methylpiperazin-1-yl)-3-[4-(pyridin-4-yl)phenyl]prop-2-yn-1-one]	5550
O=C(C#Cc1ccc(-c2cccnc2)cc1)N(CCO)c1ccccc1 [Example 89]	1690
O=C(O)CCN1CCN(C(=O)C#Cc2ccc(-c3ccccc3)c(C(F)(F)F)c2)CC1 [Example 91, 3-(4-{3-[2-(trifluoromethyl)[1,1′-biphenyl]-4-yl]prop-2-ynoyl}piperazin-1-yl)propanoic acid monohydrochloride]	600
O=C(O)c1ccc2c(c1)N(C(=O)C#Cc1ccc(-c3ccccc3)c(C(F)(F)F)c1)CC2 [Example 92, 1-{3-[2-(trifluoromethyl)[1,1′-biphenyl]-4-yl]prop-2-ynoyl}-2,3-dihydro-1H-indole-6-carboxylic acid]	767
O=C(O)CCCN1CCN(C(=O)C#Cc2ccc(-c3ccccc3)c(C(F)(F)F)c2)CC1 [Example 93]	919
O=C(O)C1CCN(C(=O)C#Cc2ccc(-c3ccccc3)c(C(F)(F)F)c2)C1 (stereo not shown) [Example 94]	11800
CN1CCN(C(=O)C#Cc2cnn(-c3ccc(C(F)(F)F)cc3)c2)CC1 [Example 95, 1-(4-methylpiperazin-1-yl)-3-{1-[4-(trifluoromethyl)phenyl]-1H-pyrazol-4-yl}prop-2-yn-1-one]	1440
O=C(C#Cc1ccc(-c2ccccc2)c(CN2CCOCC2)c1)NC[C@H](O)CO [Example 97]	4610
COC1CCN(Cc2cc(C#CC(=O)NC[C@H](O)CO)ccc2-c2ccccc2)CC1 [Example 98]	2570
CN1CC2(C1)CN(C(=O)C#Cc1ccc(-c3ccccc3)cc1)C2 [Example 102]	842
O=C(C#Cc1ccc(C2CCOCC2)c(C(F)(F)F)c1)N1C[C@@H](O)[C@@H](O)C1 [Example 104]	1790
CC(C)(C)n1cc(-c2ccc(C#CC(=O)N3C[C@@H](O)[C@@H](O)C3)cc2C(F)(F)F)cn1 [Example 105]	620
CN(C)c1cc(C#CC(=O)N2C[C@@H](O)[C@@H](O)C2)ccc1-c1ccccc1C(F)(F)F [Example 110]	1210
COc1cc(C#CC(=O)N2C[C@@H](O)[C@@H](O)C2)ccc1-c1ccccc1C(F)(F)F [Example 111]	1050
Cc1cc(C#CC(=O)N2C[C@@H](O)[C@@H](O)C2)ccc1-c1ccccc1C(F)(F)F [Example 112]	887
O=C(C#Cc1ccc(-c2ccccc2)c(OC(F)F)c1)NC[C@H](O)CO [Example 113]	698
O=C(C#Cc1cn(-c2ccc(F)cc2)c(C(F)(F)F)n1)NC[C@H](O)CO [Example 115]	4940
O=C(C#Cc1ccc(-c2ccccc2C(F)(F)F)c2ncccc12)N1C[C@@H](O)[C@@H](O)C1 [Example 117]	2830
O=C(C#Cc1ccc(-c2ccccc2C(F)(F)F)nn1)N1C[C@@H](O)[C@@H](O)C1 [Example 118]	838
NC(=O)c1cc(C#CC(=O)N2C[C@@H](O)[C@@H](O)C2)ccc1-c1ccccc1C(F)(F)F [Example 119, 4-{3-[(3R,4S)-3,4-dihydroxypyrrolidin-1-yl]-3-oxoprop-1-yn-1-yl}-2′-(trifluoromethyl)[1,1′-biphenyl]-2-carboxamide]	5260
O=C(C#Cc1ccc(-c2ccccc2)c(O)c1)N1C[C@@H](O)[C@@H](O)C1 [Example 121]	7780
COc1ncc(-c2ccc(C#CC(=O)N3C[C@@H](O)[C@@H](O)C3)cc2C(F)(F)F)cn1 [Example 122]	3100
CS(=O)(=O)NCc1cc(C#CC(=O)N2C[C@@H](O)[C@@H](O)C2)ccc1-c1ccccc1C(F)(F)F [Example 124]	2000
CN[C@@H]1CCN(C(=O)C#Cc2ccc(-c3ccccn3)c(C(F)(F)F)c2)C1 [Example 127, 1-[(3R)-3-(methylamino)pyrrolidin-1-yl]-3-[4-(pyridin-2-yl)-3-(trifluoromethyl)phenyl]prop-2-yn-1-one]	529
O=C(C#Cc1ccc(-c2ccccc2C(F)(F)F)cc1)N1C[C@@H](O)[C@@H](O)C1 [Example 131, 1-[(3R,4S)-3,4-dihydroxypyrrolidin-1-yl]-3-[2′-(trifluoromethyl)[1,1′-biphenyl]-4-yl]prop-2-yn-1-one]	578

These reach a lower IC50. Values come first.

IC50 [nM]	Structure (SMILES)
76	CN(CCO)C(=O)C#Cc1ccc(-c2ccccc2OC(F)(F)F)c(C(F)(F)F)c1 [Example 76]
91	O=C(C#Cc1ccc(-c2ccccc2OC(F)(F)F)c(C(F)(F)F)c1)N1CC(O)C1 [Example 77]
51	O=C(C#Cc1ccc(-c2ccccc2OC(F)(F)F)c(C(F)(F)F)c1)N1CC(O)(CO)C1 [Example 78]
185	O=C(C#Cc1ccc(-c2ccc(OC(F)F)cc2)c(C(F)(F)F)c1)N1C[C@@H](O)[C@@H](O)C1 [Example 79]
37	O=C(C#Cc1ccc(-c2cccc(OC(F)F)c2)c(C(F)(F)F)c1)N[C@@H]1COC[C@@H]1O [Example 81]
239	O=C(C#Cc1ccc(-c2cccc(OC(F)F)c2)c(C(F)(F)F)c1)N[C@H]1COC[C@H]1O [Example 82]
430	O=C(C#Cc1ccc(-c2ccc(OC(F)F)cc2)c(C(F)(F)F)c1)N[C@@H]1COC[C@@H]1O [Example 83]
435	O=C(C#Cc1ccc(-c2ccc(Cl)cc2)c(C(F)(F)F)c1)N1C[C@@H](O)[C@@H](O)C1 [Example 84]
224	O=C(C#Cc1cnc(-c2ccc(C(F)(F)F)cc2)c(C(F)(F)F)c1)N1C[C@@H](O)[C@@H](O)C1 [Example 85]
471	O=C(C#Cc1ccc(-c2ccccc2)c(C(F)(F)F)c1)Nc1cccc(C(=O)O)c1 [Example 90, 3-({3-[2-(trifluoromethyl)[1,1′-biphenyl]-4-yl]prop-2-ynoyl}amino)benzoic acid]
80	O=C(C#Cc1ccc(-c2ccccc2)c(CN2CCCCC2)c1)N(C[C@@H](O)CO)c1ccccc1 [Example 96, N-[(2R)-2,3-dihydroxypropyl]-N-phenyl-3-{2-[(piperidin-1-yl)methyl][1,1′-biphenyl]-4-yl}prop-2-ynamide]
125	N[C@H]1CCN(C(=O)C#Cc2ccc(-c3ccccc3)c(C(F)(F)F)c2)C1 [Example 100, 1-[(3S)-3-aminopyrrolidin-1-yl]-3-[2-(trifluoromethyl)[1,1′-biphenyl]-4-yl]prop-2-yn-1-one monooxalate]
190	N[C@@H]1CCN(C(=O)C#Cc2ccc(-c3ccccc3)c(C(F)(F)F)c2)C1 [Example 101]
402	O=C(C#Cc1ccc(-c2ccccc2)c(C(F)(F)F)c1)N1CC[C@H](O)C1 [Example 103]
358	O=C(C#Cc1ccc(-c2ccccc2)c(C(F)(F)F)c1)N[C@H]1C[C@@H](O)[C@@H](O)C1 [Example 106, N-[(1r,3R,4S)-3,4-dihydroxycyclopentyl]-3-[2-(trifluoromethyl)[1,1′-biphenyl]-4-yl]prop-2-ynamide]
489	O=C(C#Cc1ccc(-c2ccccc2)c(C(F)(F)F)c1)N[C@@H]1C[C@@H](O)[C@@H](O)C1 [Example 107]
263	O=C(C#Cc1ccc(-c2ccccc2)c(C(F)(F)F)c1)N1CC[C@@H](O)C1 [Example 108]
112	O=C(C#Cc1ccc(-c2ccccc2C(F)(F)F)c(Cl)c1)N1C[C@@H](O)[C@@H](O)C1 [Example 109]
339	O=C(C#Cc1ccc(-c2ccccc2)c(C(F)(F)F)c1)NCCNS(=O)(=O)CCO [Example 114]
428	O=C(C#Cc1cnc(-c2ccccc2C(F)(F)F)cn1)N1C[C@@H](O)[C@@H](O)C1 [Example 116]
324	N#Cc1cc(C#CC(=O)N2C[C@@H](O)[C@@H](O)C2)ccc1-c1ccccc1 [Example 120]
143	CN(Cc1cc(C#CC(=O)N2C[C@@H](O)[C@@H](O)C2)ccc1-c1ccccc1C(F)(F)F)C1CC1 [Example 123]
322	CS(=N)(=O)CCNC(=O)C#Cc1ccc(-c2ccccc2)c(C(F)(F)F)c1 (stereo not shown) [Example 125]
372	CC(C)Oc1cc(C#CC(=O)N2C[C@@H](O)[C@@H](O)C2)ccc1-c1ccccc1C(F)(F)F [Example 126]
242	C#CCOc1ccccc1-c1ccc(C#CC(=O)N2C[C@@H](O)[C@@H](O)C2)cc1C(F)(F)F [Example 129, 1-[(3R,4S)-3,4-dihydroxypyrrolidin-1-yl]-3-{2′-[(prop-2-yn-1-yl)oxy]-2-(trifluoromethyl)[1,1′-biphenyl]-4-yl}prop-2-yn-1-one]
427	CS(=O)(=O)NCCCN(CCO)C(=O)C#Cc1ccc(-c2ccccc2)c(C(F)(F)F)c1 [Example 130, N-(2-hydroxyethyl)-N-{3-[(methanesulfonyl)amino]propyl}-3-[2-(trifluoromethyl)[1,1′-biphenyl]-4-yl]prop-2-ynamide]
179	N=S1(=O)CCN(C(=O)C#Cc2cnc(-c3ccc(Cl)cc3C(F)(F)F)nc2)CC1 [Example 132]
